In article PMC11023993, “Piperine, quercetin, and curcumin identified as promising natural products for topical treatment of cutaneous leishmaniasis” (Parasitology Research, 2024):

Assay: MTT cytotoxicity assay in uninfected U-937 macrophages
Settings: human
Experimental: U-937 (CRL-1593.2™) macrophages (ATCC, Manassas, VA, USA) were cultured in RPMI-1640 medium supplemented with 10% of FBS and incubated at 37 °C in 5% CO2, 95% humidity atmosphere. U-937 cells in the exponential growth phase were recovered, and washed by centrifugation at 1800 rpm for 10 min at room temperature; the pellet was then resuspended in supplemented RPMI 1640 medium and counted in a Neubauer chamber. The number was adjusted to 1 × 10^6 cells per mL and 100 µL was dispensed into each well of a 96-well plate. Then, another 100 µL of each serial dilution of QUE, PIP, CUR, doxorubicin, and amphotericin B was added to each well by triplicate and plates were incubated at 37 °C 5% CO2, 95% humidity atmosphere for 48 h.
The MTT solution is then added to the treated cells, where the yellow MTT is reduced to purple formazan by a variety of mitochondrial and cytosolic enzymes that are operational in viable cells. After 3 h of incubation with MTT, the formazan precipitates. Consequently, the growing medium was removed, the formazan was dissolved in DMSO, and the absorbance of the solution was measured at 570 nm using a microplate reader spectrophotometer (Varioskan Flash, Thermo Fisher Scientific).
Cells exposed to the standard cytotoxic drug doxorubicin were used as an internal control for toxicity (positive control) while cells incubated in the absence of any compound or drug were used as a control for viability (negative control). A solution of 0.5% DMSO was used as a blank solution. Non-specific absorbance was corrected by subtracting absorbance (OD) of the blank. Determinations were done by triplicate in at least two independent experiments.
The OD of viable cells that remained after treatment was compared to the OD of control cells that were not exposed to the drug. The LC50 (median lethal concentration) values and their statistical errors were calculated based on triplicates of the measurement in the independent assays. The LC50 values were determined by non-linear regression using Prism GraphPad 10.
The LC50 and the EC50 were calculated by Probit analysis using GraphPad Prism 10 (San Diego, CA, USA). Both cytotoxicity and leishmanicidal activity were defined by ranges of values of LC50 and EC50 in terms of high, moderate, or low as follows: high cytotoxicity for LC50 values < 100 µM, moderate cytotoxicity for LC50 values > 100 µM but < 200 µM, and low cytotoxicity for LC50 values > 200 µM. […] In addition, the cytotoxicity in U937 macrophages was correlated with the leishmanicidal activity by calculating the Selectivity Index (SI), using the equation: SI = LC50/EC50 (Indrayanto et al. [2021]).

With `O=c1c(O)c(-c2ccc(O)c(O)c2)oc2cc(O)cc(O)c12` [Quercetin, quercetin] the CC50 at 48 h was > 662 µM.
